Assay results: patent US20080139624A1, “Oral Dosage Form Comprising Rosiglitazone” (priority 2005, published 2008)

Assay: pH dependent solubility
Format: physicochemical
Conditions: acidic conditions of the stomach (around pH 2) vs near neutral conditions of the lower intestine (around pH 7)

pH dependent solubility: marked pH dependent solubility
SMILES: CN(CCOc1ccc(CC2SC(=O)NC2=O)cc1)c1ccccn1 (stereo not shown) [Compound A, 5-[4-[2-(N-methyl-N-(2 pyridyl)amino)ethoxy]benzyl]thiazolidine-2,4-dione]
